Assay results taken from paper PMC10922772 (ACS infectious diseases, 2024).

How the values were obtained:
SARS-CoV-2 Mpro = SARS-CoV-2 Mpro (Severe acute respiratory syndrome coronavirus 2, UniProt P0DTD1); assay: biochemical; conditions: for IC50: IC50, enzyme 100 nM, substrate 20 μM, 10 min preincubation, pH 6.5; for activity reduction vs. compound 30: compared with more active diastereomer of 30; for inhibition at 20 µM: read-out: % inhibition at 20 μM
[1] = test system: SARS-CoV-2 (Washington strain, 2020); assay: microbe, parasite or virus in culture; format: cell-based; conditions: for EC68 (half-log reduction of virus titer): 0.01 MOI
[2] = Severe acute respiratory syndrome coronavirus 2, Vero, read-out: inhibition of SARS-CoV-2 replication

Row | SMILES | IC50 (SARS-CoV-2 Mpro) | EC68 (half-log reduction of virus titer) ([1]; Vero cells, 48 h) | inhibition at 20 µM (SARS-CoV-2 Mpro) | also measured
1 | CC1OC1C(=O)N(c1ccc(C(C)(C)C)cc1)C(C(=O)NC1CCCCC1)c1cccnc1 [(R, S, R)- and (S, R, S)-35, N-(4-(tert-Butyl)phenyl)-N-(2-(cyclohexylamino)-2-oxo-1-(pyridin-3-yl)ethyl)-3-methyloxirane-2-carboxamide] | 1900 ± 210 nM | 15 μM | – | activity difference between the two separated diastereomers (SARS-CoV-2 Mpro): > 10 fold; activity reduction vs. compound 30 (SARS-CoV-2 Mpro): ≤ 3 fold
2 | CC(C)(C)c1ccc(N(C(=O)C2CO2)C(C(=O)NC2CCCCC2)c2cccnc2)cc1 [(R, S)- and (S, R)-30, N-(4-(tert-Butyl)phenyl)-N-(2-(cyclohexylamino)-2-oxo-1-(pyridin-3-yl)ethyl)oxirane-2-carboxamide] | 760 ± 180 nM | 5 μM | – | activity difference between the two separated diastereomers (SARS-CoV-2 Mpro): > 10 fold; EC90 ([1]; Severe acute respiratory syndrome coronavirus 2, Vero, 48 h): 15000 nM
3 | CC(C)(C)c1ccc(N(C(=O)C2OC2(C)C)C(C(=O)NC2CCCCC2)c2cccnc2)cc1 (centres unmarked) [Compound 36, N-(4-(tert-Butyl)phenyl)-N-(2-(cyclohexylamino)-2-oxo-1-(pyridin-3-yl)ethyl)-3,3-dimethyloxirane-2-carboxamide] | 2500 ± 280 nM | – | – | activity reduction vs. compound 30 (SARS-CoV-2 Mpro): ≤ 3 fold; antiviral activity (in words) ([1]; at 15 μM, Vero cells): inactive
4 | CC(C)(C)NC(=O)C(c1cccnc1)N(C(=O)C1OC1(C)C)c1ccc(C(C)(C)C)cc1 (centres unmarked) [Compound 40, N-(4-(tert-Butyl)phenyl)-N-(2-(tert-butylamino)-2-oxo-1-(pyridin-3-yl)ethyl)-3,3-dimethyloxirane-2-carboxamide] | – | – | 31% | –
5 | O=C(NCc1ccccc1)C(c1cccnc1)N(C(=O)c1ccco1)c1ccc(-c2ccccc2)cc1 (centres unmarked) [Compound 1, N-([1,1’-Biphenyl]-4-yl)-N-(2-(benzylamino)-2-oxo-1-(pyridin-3-yl)ethyl)furan-2-carboxamide] | 740 ± 70 nM | – | – | –
6 | C=CC(=O)Nc1ccc(N(C(=O)c2ccco2)C(C(=O)NCc2ccccc2)c2cccnc2)cc1 (centres unmarked) [Compound 7, N-(4-Acrylamidophenyl)-N-(2-(benzylamino)-2-oxo-1-(pyridin-3-yl)ethyl)furan-2-carboxamide] | – | – | 22% | –
7 | O=C(Nc1cccc(N(C(=O)c2ccco2)C(C(=O)NCc2ccccc2)c2cccnc2)c1)C(Cl)Cl (centres unmarked) [Compound 9, N-(2-(Benzylamino)-2-oxo-1-(pyridin-3-yl)ethyl)-N-(3-(2,2-dichloroacetamido)phenyl)furan-2-carboxamide] | – | – | 20% | –
8 | CC(C)(C)NC(=O)C(c1cccnc1)N(C(=O)C1(C)CO1)c1ccc(C(C)(C)C)cc1 (centres unmarked) [Compound 41, N-(4-(tert-Butyl)phenyl)-N-(2-(tert-butylamino)-2-oxo-1-(pyridin-3-yl)ethyl)-2-methyloxirane-2-carboxamide] | – | – | 22% | –
9 | CC(C)(C)NC(=O)C(c1cccnc1)N(C(=O)CCl)c1cccc(NC(=O)CCl)c1 (centres unmarked) [Compound 18, N-(tert-Butyl)-2-(2-chloro-N-(3-(2-chloroacetamido)phenyl)acetamido)-2-(pyridin-3-yl)acetamide] | 3600 ± 600 nM | – | – | –
10 | CC(C)(C)NC(=O)C(c1cccnc1)N(C(=O)CCl)c1ccc(C(C)(C)C)cc1 (centres unmarked) [Compound 13, N-(tert-Butyl)-2-(N-(4-(tert-butyl)phenyl)-2-chloroacetamido)-2-(pyridin-3-yl)acetamide] | 600 ± 50 nM | 3 μM | – | inhibition at 3 µM [1, 2]: 68%; inhibition at 5 µM [1, 2]: 97%; titer reduction ([1]; at 3 μM, Vero cells): 0.5 log; titer reduction ([1]; at 5 μM, Vero cells): 1.5 log
